Biological target: T1, human recombinant Yes [a.a. 2–543 (end)] (Homo sapiens, UniProt P07947)
T1 construct: human recombinant Yes [a.a; 2–543 (end)]; purchased BPS Bioscience 40488
Test: ADP-Glo kinase assay, inhibition rates of Yes phosphorylation activity (first and second screening)
Type: biochemical
Settings: 10 μmol L−1 compound; for First screening IR (inhibition rate): mean of n = 4 wells; for Second screening IR (inhibition rate): dissolved from fresh powder, n = 4
In short: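 ADP-Glo luminescence measured inhibition of human recombinant Yes (a.a. 2–543) phosphorylation activity. In the first screen, each compound ran in 4 wells and inhibition rates were averaged. The second screen retested hits as compounds dissolved from fresh powder.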

T1 sequence (P07947 2-543): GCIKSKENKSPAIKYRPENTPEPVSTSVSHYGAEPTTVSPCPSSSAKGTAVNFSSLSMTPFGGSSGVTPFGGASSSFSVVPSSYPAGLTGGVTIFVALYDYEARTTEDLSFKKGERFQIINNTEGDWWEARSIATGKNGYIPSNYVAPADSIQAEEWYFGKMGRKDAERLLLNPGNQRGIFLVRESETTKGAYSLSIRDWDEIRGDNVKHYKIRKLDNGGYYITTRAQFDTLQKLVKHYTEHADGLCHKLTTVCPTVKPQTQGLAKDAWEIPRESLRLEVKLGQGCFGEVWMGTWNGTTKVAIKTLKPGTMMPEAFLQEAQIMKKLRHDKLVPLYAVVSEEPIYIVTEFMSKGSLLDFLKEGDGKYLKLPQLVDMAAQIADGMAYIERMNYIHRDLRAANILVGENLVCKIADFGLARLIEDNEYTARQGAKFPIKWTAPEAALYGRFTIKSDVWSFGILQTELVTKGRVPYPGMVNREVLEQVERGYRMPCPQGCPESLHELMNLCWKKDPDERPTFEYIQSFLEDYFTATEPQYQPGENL

First screening IR (inhibition rate)	Second screening IR (inhibition rate)	SMILES
-1%		COc1ccccc1/C=C1\CC(C)Cc2c1nc1ccccc1c2C(=O)O (stereo not drawn) [Compound Z46107852]
15%		CCN(Cc1ccc2c(c1)OCCO2)C(=O)CSc1nnc(C(C)N(C)C)n1-c1ccc(F)cc1 (stereo not drawn) [Compound Z97565837]
4%		Cc1ccc(NC(=O)CSc2ncnc3ccccc23)cc1F [Compound Z19314901]
-1%		Cn1c(=O)[nH]c(=O)c2c1nc(CN1CCN(c3cccc(Cl)c3)CC1)n2CCCc1ccccc1 [Compound Z238883342]
15%		COc1ccccc1C(=O)N=Nc1c(O)[nH]c2ccc(C)cc12 [Compound Z381428874]
-3%		CCOC(=O)c1c(-c2ccc(C)cc2)csc1Nc1nc2ccccc2nc1N1CCN(CC)CC1 [Compound Z56854384]
30%		O=C(CCC(=O)N1CCC(c2ccccc2)=N1)NCc1cccc(Cl)c1 [Compound Z32361141]
3%		Cc1nn(Cc2ccc(F)cc2)c2sc(C(=O)Nc3ccc(N4CCOCC4)cc3N3CCOCC3)cc12 [Compound Z28027525]
5%		O=C(CSc1nnc(-c2cccnc2)n1C1CC1)c1ccc2c(c1)OCCCO2 [Compound Z98268667]
18%		Cc1ccc(Cn2c(=O)c3ccccc3n3c(CCC(=O)NCCCN4CCC(C)CC4)nnc23)cc1 [Compound Z1169067743]
4%		Cn1c(CSc2n[nH]c(-c3ccccc3F)n2)nc2ccccc21 [Compound Z982182198]
-1%		O=C(Nc1cc(-c2cccc([N+](=O)[O-])c2)sc1C(=O)O)c1ccc2c(c1)CCC2 [Compound Z204342388]
10%		CC(C)N(c1ccccc1)c1ccc(NC(=O)COC(=O)c2c3c(nc4ccccc24)CCCC3)cc1 [Compound Z19690670]
13%		O=C(CSc1n[nH]c(-c2ccccc2)n1)N1N=C(c2ccc(Cl)cc2)CC1c1ccco1 (stereo not drawn) [Compound Z25399394]
-3%		O=C(/C=C/c1ccco1)Nc1cc(-c2cccc([N+](=O)[O-])c2)sc1C(=O)O [Compound Z204341820]
15%		Cc1cccc(-n2c(=O)c3ccccc3n3c(SCC(=O)NC(C)CCCC(C)C)nnc23)c1C (stereo not drawn) [Compound Z113967060]
-2%		CN(CC(=O)Nc1ccccc1Cl)C(=O)COC(=O)c1c2c(nc3ccccc13)CCC(C(C)(C)C)C2 (stereo not drawn) [Compound Z19182299]
-10%		CC(C)n1ncc2cc(C(=O)Nc3ccc4[nH]c(=O)[nH]c4c3)cnc21 [Compound Z217430364]
50%		CC(=O)NCCNC(=O)c1cc(-c2ccccc2)nc2c1cnn2Cc1ccccc1Cl [Compound Z228081748]

First screening IR (inhibition rate)	Second screening IR (inhibition rate)	SMILES
34%	0%	Cc1nccn1-c1cncc(N2CCC3(CCCC3)CC2)n1 [Compound Z1578863056]
48%		Cc1cc(COC(=O)c2cc(-c3ccc4c(c3)OCCO4)nc3c2cnn3C(C)C)on1 [Compound Z227321660]
6%		Cc1nc(-c2ccsc2)sc1C(=O)Nc1ccc(Cl)cc1F [Compound Z115004236]
3%		Clc1ccc(/C=C2/CCCc3c2nc2ncnn2c3-c2ccc(Cl)cc2Cl)c(Cl)c1 [Compound Z56798990]
23%		CCS(=O)(=O)Nc1ccc(C2=NN(S(=O)(=O)c3ccc(C)cc3)C(c3ccco3)C2)cc1 (stereo not drawn) [Compound Z57514609]
-19%		CCOC(=O)N(C)c1ccc(Nc2nccc(C(F)(F)F)n2)cc1 [Compound Z805455424]
70%		COc1ccc2[nH]c(C)c(C(=O)NCC(C)(C)c3cccc(F)c3)c2c1 [Compound Z1482480186]
-3%		COc1ccc(-n2c(=O)c3ccccc3n3c(SCC(=O)NC(C)CCCC(C)C)nnc23)cc1 (stereo not drawn) [Compound Z97290306]
-1%		O=C(Nc1cc(-c2cccc([N+](=O)[O-])c2)sc1C(=O)O)c1ccc2c(c1)OCCO2 [Compound Z204342356]
-9%		CCOCCCn1c(NC(=O)c2ccc3c(c2)CCN3C(C)=O)nc2ccccc21 [Compound Z1090594860]
48%		CC1CCN(c2nc(N)nc3nc[nH]c23)CCN1Cc1ccccc1 (stereo not drawn) [Compound Z1675288656]
39%	28%	NC(=O)c1cc(-c2csc(NCc3ccccc3)n2)ccc1O [Compound Z48850058]
1%		CC(NC(=O)CCc1c[nH]c2ccccc12)c1cc2ccccc2o1 (stereo not drawn) [Compound Z91037735]
-2%		Cn1c2ccccc2n2c3ccccc3c(=O)c(C#N)c12 [Compound Z734296158]
-10%		COc1ccc(CCNC(=O)Cn2c(CN3CCOCC3)nc3sc4c(c3c2=O)CCC(C)C4)cc1 (stereo not drawn) [Compound Z56952971]
11%		CCCOc1ccc(OCC(=O)Nc2ccc3oc(C)nc3c2)cc1 [Compound Z70909650]
-4%		Cc1cnc(COC(=O)c2cc(-c3ccccn3)ccc2Cl)cn1 [Compound Z1514764424]
21%		CN(C)c1ccc(-c2cncc(C(=O)NCC3CC=CCC3)c2)cc1 (stereo not drawn) [Compound Z1418841673]
4%		Cc1ccc(-c2nn3c(=O)c4c5c(sc4nc3c3ccccc23)CCCC5)cc1 [Compound Z55163996]

More lines, now with the values behind:

SMILES	First screening IR (inhibition rate)	Second screening IR (inhibition rate)
CN(C)S(=O)(=O)c1cccc(S(=O)(=O)N(C)C)c1 [Compound Z285953016]	13%	
Nc1nc(N2CC=C(c3ccccc3F)CC2)c2[nH]cnc2n1 [Compound Z1699229618]	60%	
CCCCn1nc(C)c(C(=O)N2CCC(C)(CN3CCN(C)CC3)CC2)c1Cl [Compound Z1667221615]	29%	
CN(C1CCS(=O)(=O)C1)S(=O)(=O)c1ccc(F)cc1 (stereo not drawn) [Compound Z56813369]	-5%	
N#Cc1cccc(/C=C2/C(=O)Nc3ccccc32)c1 [Compound Z228595564]	8%	
CN(CC1CC1)c1ccc(S(C)(=O)=O)cc1S(C)(=O)=O [Compound Z666145136]	52%	
Cc1ccc(C)c(S(=O)(=O)N(CC(=O)Nc2ccc(Oc3ccccc3)cc2)Cc2ccc(F)cc2)c1 [Compound Z26125608]	-6%	
Nc1ncnc(Nc2ccc(Br)cc2)n1 [Compound Z56786772]	24%	
CCC(C)CS(=O)(=O)N(C)CC (stereo not drawn) [Compound Z1193464552]	-7%	
Cc1nn(C(C)(C)C)c2nc(C3CC3)cc(C(=O)NC(C)C)c12 [Compound Z441582602]	-6%	
O=S1(=O)C=C(Cl)C(Br)C1 (stereo not drawn) [Compound Z57056476]	1%	
O=S1(=O)CC(S(=O)(=O)c2ccccc2)C(S(=O)(=O)c2ccccc2)C1 (stereo not drawn) [Compound Z56757817]	15%	
Nc1ncnc(Nc2ccccc2F)n1 [Compound Z56931704]	12%	
N#Cc1ccc(-c2cc(-c3ccc(Cl)cc3)c3ccccc3n2)cc1 [Compound Z415722774]	6%	
O=S1(=O)CC=C(S(=O)(=O)N2CCCC2)C1 [Compound Z1342206502]	6%	
NS(=O)(=O)c1cc(S(=O)(=O)c2ccc(Cl)c(S(N)(=O)=O)c2)ccc1Cl [Compound Z56888775]	-18%	

SMILES	First screening IR (inhibition rate)	Second screening IR (inhibition rate)
CCN(C1CCS(=O)(=O)C1)S(=O)(=O)c1c(C)noc1C (stereo not drawn) [Compound Z45467189]	-5%	
Cc1ccc(-c2cc(-c3ccccc3)c3cc(Cl)ccc3n2)cc1.Cl [Compound Z48950811]	59%	-7%
C=CCNc1nc(C(=O)OCCCn2c(=O)[nH]c3ccccc32)cs1 [Compound Z17965676]	5%	
O=S(=O)(N/N=C/c1ccc(N(c2ccccc2)c2ccccc2)cc1)c1ccc(Br)cc1 [Compound Z49646816]	27%	
O=C(NCc1cccc(C(F)(F)F)c1)c1n[nH]c(=O)c2ccccc12 [Compound Z29859952]	6%	
Cl.Fc1ccccc1-c1cc(-c2ccccc2)c2ccccc2n1 [Compound Z48951009]	5%	
COc1ccc(-c2nc(NC(=O)c3ccc(NC(=O)c4ccccc4)cc3)n[nH]2)cc1 [Compound Z332936670]	14%	
Cc1ccc(S(=O)(=O)N2CCCN(S(=O)(=O)N3CC(C)CC(C)C3)CC2)cc1 (stereo not drawn) [Compound Z300467774]	4%	
CN(C)S(=O)(=O)c1cc(S(=O)(=O)c2ccc(Cl)c(S(=O)(=O)N(C)C)c2)ccc1Cl [Compound Z56862791]	1%	
CCN(C(C)C)S(=O)(=O)c1ccc(S(C)(=O)=O)cc1 [Compound Z736710192]	-4%	
Cl.N#Cc1ccc(-c2cc(-c3ccccc3F)c3cc(Cl)ccc3n2)cc1 [Compound Z48955841]	3%	
Cc1ccccc1CN(C)S(=O)(=O)C1CCS(=O)(=O)CC1 [Compound Z968740596]	-2%	
Cl.Fc1ccccc1-c1c2c(nc3ccc(Cl)cc13)-c1ccccc1OC2 [Compound Z48955788]	-15%	
Cc1c(-c2ccc(OC(F)F)cc2)nc2ccccc2c1-c1ccccc1.Cl [Compound Z48951073]	4%	
N#CCCn1ncc2c(NC3CCCC(C(F)(F)F)C3)ncnc21 (stereo not drawn) [Compound Z990858522]	-12%	
